# Measurements from US10441562B2, “Aromatic farnesyl compound and application thereof” (INSTITUTE OF MICROBIOLOGY, CHINESE ACADEMY OF SCIENCES, priority 2015, dated 2019).
# Marks after values point to notes of the source that are not given here.
# Legend:
# [1] = biological target: T1, HMG-CoA reductase (Homo sapiens, UniProt P04035); test: HMG-CoA reductase inhibitory activity test in vitro; type: biochemical
# T1 sequence (P04035 426-888 limits assumed): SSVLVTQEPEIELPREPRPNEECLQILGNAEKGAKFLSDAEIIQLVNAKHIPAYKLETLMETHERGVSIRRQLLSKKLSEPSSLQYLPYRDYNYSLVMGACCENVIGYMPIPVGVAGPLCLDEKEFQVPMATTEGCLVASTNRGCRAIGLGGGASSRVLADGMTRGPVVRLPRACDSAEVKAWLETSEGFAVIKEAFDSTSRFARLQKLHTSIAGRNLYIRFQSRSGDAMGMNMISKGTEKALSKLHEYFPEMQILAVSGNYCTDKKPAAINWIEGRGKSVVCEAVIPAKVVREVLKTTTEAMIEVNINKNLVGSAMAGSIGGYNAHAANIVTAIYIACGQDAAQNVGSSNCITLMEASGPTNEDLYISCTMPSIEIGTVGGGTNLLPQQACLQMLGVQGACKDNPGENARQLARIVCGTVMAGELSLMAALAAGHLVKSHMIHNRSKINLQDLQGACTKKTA
# [2] = biological target: T2, protein tyrosine phosphatase 1B (PTP-1B) (Homo sapiens, UniProt P18031); test: PTP-1B inhibitory activity test in vitro; type: biochemical
# T2 sequence (P18031 1-435): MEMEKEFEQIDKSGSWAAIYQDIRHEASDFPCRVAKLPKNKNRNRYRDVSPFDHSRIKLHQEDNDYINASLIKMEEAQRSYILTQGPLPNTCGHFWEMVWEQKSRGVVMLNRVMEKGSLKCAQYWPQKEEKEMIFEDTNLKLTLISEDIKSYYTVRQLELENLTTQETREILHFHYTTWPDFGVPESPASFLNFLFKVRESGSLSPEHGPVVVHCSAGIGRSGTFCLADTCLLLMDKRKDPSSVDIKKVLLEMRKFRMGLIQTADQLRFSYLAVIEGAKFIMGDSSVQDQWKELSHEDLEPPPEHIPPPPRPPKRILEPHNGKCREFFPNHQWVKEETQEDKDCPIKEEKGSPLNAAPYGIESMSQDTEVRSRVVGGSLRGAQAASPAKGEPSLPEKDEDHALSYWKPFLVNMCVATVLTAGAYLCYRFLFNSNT
# Summary of the method: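 Compound was preincubated 10 min at room temperature with 170 μg/mL PTP-1B solution, then 1 mM pNPP substrate was added and incubated 37 °C for 30 min. Reaction stopped with 3M NaOH; absorbance read at […], with blank and compound-background controls.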
# [3] = test system: hyperglycemia KK-A^y mice; test: glucose tolerance test (OGTT) in hyperglycemia KK-A^y mice; type: in vivo; conditions: OGTT 12th day, glucose 2.0 g/kg oral
# Procedure: KK-A^y mice are purchased from Chinese Academy of Medical Sciences & Peking Union Medical College Institute of Animal Studies. Experiments are carried out after adapting to the environment (T=20-24° C., constant humidity: 50-60%, 12 hours light exposure (8:00-20:00), soundproof, free feeding and drinking) for 1 week. Glucometer is purchased from Roche.
# Each group has 8 mice, and is administrated successively for 3 weeks. Model control group is given with equal amounts of 0.5% CMC-Na.
# 3) Glucose tolerance test (OGTT): glucose tolerance is detected at the 12th day after administration. The mice are fasted for 12 hours and blood is collected (0 h). After being given with glucose (2.0 g/kg) by oral administration, blood is collected from tip of tail to detect the blood sugar level after 30 min, 60 min and 120 min respectively (see table 11).
# [4] = test system: Wister rats fed with choline deficient diet; test: non-alcohol fatty liver disease in rats fed choline deficient (high-fat) diet; type: in vivo; conditions: for ALT / HDL-C / LDL-C / Liver index / TC / TG: 4 weeks
# Procedure: Serum total cholesterol kit (batch number 20131112), low density lipoprotein LDL-C kit (batch number 20140114), high density lipoprotein HDL-C kit (batch number 20140413), triglyceride TG kit (batch number 20131226) and glutamic-pyruvic transaminase ALT kit (batch number 20131006) are purchased from Nanjing Jiancheng Bioengineering Institute.
# Methods: male SPF level Wister rats are randomly divided into groups: (1) normal group (2) model control group (3) which is administered by compound S13 with the dose of 10 mg/kg (4) which is administered by compound S13 with the dose of 20 mg/kg (5) which is administered by compound S28 with the dose of 10 mg/kg […] which is administered by compound S28 with the dose of 20 mg/kg. Each group has 10 mice. The mice of normal group are fed with standard diet, the mice of other groups are fed with choline deficient diet (high-fat diet). Food intake and body weight are detected. Feeding with choline deficient diet are considered as a frequently-used hepatic adipose infiltration modeling method of rodent, which can induce the denaturation of hepatocyte, hepatitis and liver injury, at the same time the increase of blood lipid level can induce the insulin resistance.
# After being fed with high-fat diet for 8 weeks, the mice of treated group are given drugs for 4 weeks successively. Model group and normal group are given with equal amounts of 0.5% CMC-Na. After administration of medicine for 4 weeks, the rats are executed under anesthesia, and then hepatic tissue and blood are collected.
# 2) Contents of serum total cholesterol, low density lipoprotein, high density lipoprotein and triglyceride.
# 3) Contents of glutamic-pyruvic transaminase.
SMILES,IC50 [1] [µM],IC50 [2] [µM],"glucose tolerance, blood sugar 0 min ([3]; 1 mg/kg, groups 3, 7)","glucose tolerance, blood sugar 0 min ([3]; 5 mg/kg, groups 4, 8)","glucose tolerance, blood sugar 0 min ([3]; 10 mg/kg, groups 5, 9)","glucose tolerance, blood sugar 0 min ([3]; 20 mg/kg, groups 6, 10)","glucose tolerance, blood sugar 30 min ([3]; 1 mg/kg, groups 3, 7)","glucose tolerance, blood sugar 30 min ([3]; 5 mg/kg, groups 4, 8)","glucose tolerance, blood sugar 30 min ([3]; 10 mg/kg, groups 5, 9)","glucose tolerance, blood sugar 30 min ([3]; 20 mg/kg, groups 6, 10)","glucose tolerance, blood sugar 60 min ([3]; 1 mg/kg, groups 3, 7)","glucose tolerance, blood sugar 60 min ([3]; 5 mg/kg, groups 4, 8)","glucose tolerance, blood sugar 60 min ([3]; 10 mg/kg, groups 5, 9)","glucose tolerance, blood sugar 60 min ([3]; 20 mg/kg, groups 6, 10)","glucose tolerance, blood sugar 120 min ([3]; 1 mg/kg, groups 3, 7)","glucose tolerance, blood sugar 120 min ([3]; 5 mg/kg, groups 4, 8)","glucose tolerance, blood sugar 120 min ([3]; 10 mg/kg, groups 5, 9)","glucose tolerance, blood sugar 120 min ([3]; 20 mg/kg, groups 6, 10)",effect on liver index of fatty liver rats (in words) [4],ALT ([4]; 10 mg/kg),further results
"CC(C)=CCC/C(C)=C/CCC1=C[C@@H](c2cc(O)ccc2O)OC1=O [S28, (S,E)-5-(2,5-dihydroxyphenyl)-3-(4,8-dimethylnona-3,7-dien-1-yl)furan-2(5H)-one]",8.9,9.5,9.5,6.8**,7.6*,6.9**,11.3**,9.3**,16.9**,14.3**,10.5**,9.3**,13.2**,12.4**,8.3**,5.1**,10.9**,11.9**,effectively decrease the liver index of fatty liver rats,45.97** U/L,HDL-C ([4]; 10 mg/kg): 0.61** mmol/L; LDL-C ([4]; 10 mg/kg): 0.79** mmol/L; Liver index ([4]; 10 mg/kg): 2.91**; TC ([4]; 10 mg/kg): 1.95** mmol/L; TG ([4]; 10 mg/kg): 1.38** mmol/L; ALT ([4]; 20 mg/kg): 41.08** U/L; HDL-C ([4]; 20 mg/kg): 0.68** mmol/L; LDL-C ([4]; 20 mg/kg): 0.70** mmol/L; Liver index ([4]; 20 mg/kg): 2.58**; TC ([4]; 20 mg/kg): 1.36** mmol/L; TG ([4]; 20 mg/kg): 1.15** mmol/L
"CC(C)=CCC/C(C)=C/CCC1=C[C@H](c2cc(O)ccc2O)OC1=O [S13, (R,E)-5-(2,5-dihydroxyphenyl)-3-(4,8-dimethylnona-3,7-dien-1-yl)furan-2(5H)-one]",7.9,8.9,9.6,6.9*,7.96,6.90*,12.5**,9.1**,16.95**,14.00**,10.2**,9.1**,13.20**,12.45**,8.2**,5.2**,10.93**,11.90**,effectively decrease the liver index of fatty liver rats,48.24** U/L,HDL-C ([4]; 10 mg/kg): 0.57* mmol/L; LDL-C ([4]; 10 mg/kg): 0.83* mmol/L; Liver index ([4]; 10 mg/kg): 2.85**; TC ([4]; 10 mg/kg): 1.81** mmol/L; TG ([4]; 10 mg/kg): 1.21** mmol/L; ALT ([4]; 20 mg/kg): 33.56** U/L; HDL-C ([4]; 20 mg/kg): 0.72** mmol/L; LDL-C ([4]; 20 mg/kg): 0.71** mmol/L; Liver index ([4]; 20 mg/kg): 2.47**; TC ([4]; 20 mg/kg): 1.37** mmol/L; TG ([4]; 20 mg/kg): 1.08** mmol/L
